In PubChem BioAssay (NCI):
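48-hour exposure; five concentrations; linearly interpolated endpoints. TGI: total growth inhibition.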

Legend:
Assay in all cases: NCI anticancer screen, dose series, 48 h
MCF7 breast = tested on: MCF7 breast
NCI-H226 lung = tested on: NCI-H226 lung
PC-3 prostate = tested on: PC-3 prostate
MDA-MB-435 = tested on: MDA-MB-435
HOP-92 NSCLC = tested on: HOP-92 NSCLC
MDA-N = tested on: MDA-N
HCT-15 colon = tested on: HCT-15 colon
UACC-62 melanoma = tested on: UACC-62 melanoma
HL-60(TB) leukemia = tested on: HL-60(TB) leukemia
OVCAR-4 ovarian = tested on: OVCAR-4 ovarian
SF-295 CNS = tested on: SF-295 CNS
K-562 leukemia = tested on: K-562 leukemia
HCC-2998 colon = tested on: HCC-2998 colon
SK-MEL-2 melanoma = tested on: SK-MEL-2 melanoma
SN12C renal = tested on: SN12C renal
IGROV1 ovarian = tested on: IGROV1 ovarian
HT29 colon = tested on: HT29 colon
MDA-MB-231 breast = tested on: MDA-MB-231 breast
NCI-H23 lung = tested on: NCI-H23 lung
COLO 205 colon = tested on: COLO 205 colon
SW-620 colon = tested on: SW-620 colon
UACC-257 melanoma = tested on: UACC-257 melanoma
DU-145 prostate = tested on: DU-145 prostate
CCRF-CEM leukemia = tested on: CCRF-CEM leukemia
A498 renal = tested on: A498 renal
RPMI-8226 leukemia = tested on: RPMI-8226 leukemia
SNB-19 CNS = tested on: SNB-19 CNS
NCI-H460 lung = tested on: NCI-H460 lung
HOP-62 NSCLC = tested on: HOP-62 NSCLC
A549 NSCLC = tested on: A549 NSCLC
KM12 colon = tested on: KM12 colon
SR leukemia = tested on: SR leukemia
MALME-3M melanoma = tested on: MALME-3M melanoma
RXF 393 renal = tested on: RXF 393 renal
U251 CNS = tested on: U251 CNS
786-0 renal = tested on: 786-0 renal
SK-MEL-28 melanoma = tested on: SK-MEL-28 melanoma
OVCAR-5 ovarian = tested on: OVCAR-5 ovarian
SK-OV-3 ovarian = tested on: SK-OV-3 ovarian
CAKI-1 renal = tested on: CAKI-1 renal
M14 melanoma = tested on: M14 melanoma
NCI/ADR-RES ovarian = tested on: NCI/ADR-RES ovarian
LOX IMVI melanoma = tested on: LOX IMVI melanoma
SNB-75 CNS = tested on: SNB-75 CNS
HCT-116 colon = tested on: HCT-116 colon
SF-268 CNS = tested on: SF-268 CNS
T-47D breast = tested on: T-47D breast
BT-549 breast = tested on: BT-549 breast
OVCAR-3 ovarian = tested on: OVCAR-3 ovarian
MOLT-4 leukemia = tested on: MOLT-4 leukemia
HS 578T breast = tested on: HS 578T breast
SF-539 CNS = tested on: SF-539 CNS
OVCAR-8 ovarian = tested on: OVCAR-8 ovarian
EKVX NSCLC = tested on: EKVX NSCLC
UO-31 renal = tested on: UO-31 renal
SK-MEL-5 melanoma = tested on: SK-MEL-5 melanoma
TK-10 renal = tested on: TK-10 renal
NCI-H522 lung = tested on: NCI-H522 lung
ACHN renal = tested on: ACHN renal

Measured: TGI

CCOC(=O)c1cc2c([nH]1)c(OC(C)=O)cc1c2ccn1Cc1ccccc1
> 100 µM: MCF7 breast | NCI-H226 lung | PC-3 prostate | MDA-MB-435 | HOP-92 NSCLC | MDA-N | HCT-15 colon | UACC-62 melanoma | HL-60(TB) leukemia | OVCAR-4 ovarian | SF-295 CNS | K-562 leukemia | HCC-2998 colon | SK-MEL-2 melanoma | SN12C renal | IGROV1 ovarian | HT29 colon | MDA-MB-231 breast | NCI-H23 lung | COLO 205 colon | SW-620 colon | UACC-257 melanoma | DU-145 prostate | CCRF-CEM leukemia | A498 renal | RPMI-8226 leukemia | SNB-19 CNS | NCI-H460 lung | HOP-62 NSCLC | A549 NSCLC | KM12 colon | SR leukemia | MALME-3M melanoma | RXF 393 renal | U251 CNS | 786-0 renal | SK-MEL-28 melanoma | OVCAR-5 ovarian | SK-OV-3 ovarian | CAKI-1 renal | M14 melanoma | NCI/ADR-RES ovarian | LOX IMVI melanoma | SNB-75 CNS | HCT-116 colon | SF-268 CNS | T-47D breast | BT-549 breast | OVCAR-3 ovarian | MOLT-4 leukemia | HS 578T breast | SF-539 CNS | OVCAR-8 ovarian | EKVX NSCLC | UO-31 renal | SK-MEL-5 melanoma

COc1ccc(CNc2nc3ccccc3nc2C(=O)O)cc1OC
> 100 µM: MCF7 breast | NCI-H226 lung | PC-3 prostate | MDA-MB-435 | HOP-92 NSCLC | MDA-N | HCT-15 colon | UACC-62 melanoma | HL-60(TB) leukemia | OVCAR-4 ovarian | SF-295 CNS | K-562 leukemia | HCC-2998 colon | SN12C renal | IGROV1 ovarian | HT29 colon | MDA-MB-231 breast | NCI-H23 lung | TK-10 renal | COLO 205 colon | SW-620 colon | UACC-257 melanoma | DU-145 prostate | CCRF-CEM leukemia | A498 renal | RPMI-8226 leukemia | NCI-H460 lung | HOP-62 NSCLC | A549 NSCLC | KM12 colon | SR leukemia | MALME-3M melanoma | RXF 393 renal | U251 CNS | 786-0 renal | SK-MEL-28 melanoma | SK-OV-3 ovarian | CAKI-1 renal | NCI/ADR-RES ovarian | LOX IMVI melanoma | SNB-75 CNS | HCT-116 colon | SF-268 CNS | T-47D breast | BT-549 breast | OVCAR-3 ovarian | MOLT-4 leukemia | NCI-H522 lung | HS 578T breast | SF-539 CNS | OVCAR-8 ovarian | ACHN renal | EKVX NSCLC | UO-31 renal | SK-MEL-5 melanoma
